Measurements from ChEMBL document CHEMBL1131433, “The bioactive conformation of aminoalkylindoles at the cannabinoid CB1 and CB2 receptors: insights gained from (E)- and (Z)-naphthylidene indenes” (J Med Chem, 1998).

Tests used:
Cavia porcellus [1] = organism: Cavia porcellus; test: Compound was evaluated for inhibition of electrically evoked contractions of the myenteric plexus-longitudinal muscle of the Guinea pig small intestine; assay type: functional; settings: Muscle tissue
Cavia porcellus [2] = organism: Cavia porcellus; test: Compound was evaluated for maximum inhibition of electrically evoked contractions of the myenteric plexus-longitudinal muscle of the Guinea pig small intestine; assay type: functional; settings: Muscle tissue

Compound | EC50 (Cavia porcellus [1]) | Emax (Cavia porcellus [2])
CC1=C(CCN2CCOCC2)c2ccccc2C1=Cc1cccc2ccccc12 [listing 1 of 2 here] | 52.9 nM | –
C1=C(CCN2CCOCC2)c2ccccc2/C1=C/c1cccc2ccccc12 | 6.57 nM | –
C1=C(CCN2CCOCC2)c2ccccc2/C1=C\c1cccc2ccccc12 | 283 nM | –
CC1=C(CCN2CCOCC2)c2ccccc2C1=Cc1cccc2ccccc12 [listing 2 of 2 here] | > 3160 nM | –
Cc1c(C(=O)c2cccc3ccccc23)c2cccc3c2n1[C@H](CN1CCOCC1)CO3 [WIN-552122] | 4.92 nM | 61.9%
